Data on 11 molecules can be found in PubChem BioAssay (NCI).

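Values below derive from 48-hour exposures of cells grown in 96-well plates, with endpoints linearly interpolated between the two concentrations bracketing the appropriate inhibition level. GI50 = concentration required for 50% inhibition of growth. TGI: concentration producing complete growth inhibition.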 Some results are limits rather than exact numbers.

Test systems include PC-3 prostate; SR leukemia; SN12C renal; DU-145 prostate; RPMI-8226 leukemia; LOX IMVI melanoma; UACC-257 melanoma; HL-60(TB) leukemia; COLO 205 colon; HCC-2998 colon.
Assay in all cases: growth of human tumour cells (NCI), 48 h

For `COc1ccc2cc(C(=O)/C=C/c3cccc(Cl)c3Cl)ccc2c1`, the GI50 in the assay with PC-3 prostate is 12.4 µM; with SR leukemia it was 0.806 µM; in the assay on SN12C renal, 5.67 µM; in the assay on DU-145 prostate, 9.57 µM; with RPMI-8226 leukemia, 5.56 µM; in the assay with LOX IMVI melanoma, 0.651 µM. For the same molecule, the GI50 in the assay with UACC-257 melanoma is 39.6 µM; in the assay on HL-60(TB) leukemia, 24.2 µM; with COLO 205 colon it was 24.7 µM. Further, the TGI is greater than 81.9 µM with PC-3 prostate; greater than 100 µM in the assay with SR leukemia; 32.3 µM in the assay with SN12C renal; greater than 55.9 µM with DU-145 prostate; greater than 46.8 µM with RPMI-8226 leukemia; greater than 24.9 µM in the assay with LOX IMVI melanoma. Also, the TGI in the assay on UACC-257 melanoma was greater than 100 µM; in the assay with HL-60(TB) leukemia it was greater than 100 µM; in the assay on COLO 205 colon, greater than 71.6 µM.
With `COc1cc2c3c(n(CCN)c(=O)c2cc1OC)-c1cc2c(cc1C3=O)OCO2`, the GI50 was 0.671 µM with PC-3 prostate; 1.56 µM in the assay with SR leukemia; 0.254 µM in the assay with SN12C renal; 0.0401 µM in the assay with DU-145 prostate; less than 0.0159 µM with RPMI-8226 leukemia; 0.235 µM in the assay on LOX IMVI melanoma. Also, the GI50 in the assay with UACC-257 melanoma is 3.84 µM; in the assay on COLO 205 colon, 0.8 µM. Also, the TGI in the assay on PC-3 prostate is 2.89 µM; in the assay on SR leukemia, greater than 100 µM; in the assay on SN12C renal, 1.3 µM; in the assay on DU-145 prostate it was 1.13 µM; in the assay on RPMI-8226 leukemia, 0.303 µM; in the assay on UACC-257 melanoma it was 11.2 µM. Also, the values for the TGI with HL-60(TB) leukemia and with COLO 205 colon were greater than 100 µM and 4.4 µM, respectively.
For the molecule `O=C(Nc1cnn2ccc(N3CCC[C@@H]3c3cc(F)ccc3F)nc12)N1CC[C@H](O)C1`, the GI50 with PC-3 prostate, in the assay on SR leukemia, with SN12C renal, with HCC-2998 colon, with DU-145 prostate and with RPMI-8226 leukemia was greater than 100 µM throughout. In addition, the GI50 in the assay on LOX IMVI melanoma, with HL-60(TB) leukemia and in the assay on COLO 205 colon was greater than 100 µM each time. For the same molecule, the TGI in the assay on PC-3 prostate, in the assay on SR leukemia, in the assay with SN12C renal, in the assay with HCC-2998 colon, in the assay with DU-145 prostate and in the assay on RPMI-8226 leukemia was greater than 100 µM each time. For the same molecule, the TGI with LOX IMVI melanoma, with HL-60(TB) leukemia and in the assay with COLO 205 colon was greater than 100 µM in each case.
`CCOP(=O)(CC(=O)C1=C(O)C(CCCNC(=O)OC(C)(C)C)N(Cc2ccc(OC)c(OC)c2)C1=O)OCC` (stereo not drawn): the TGI with SR leukemia, in the assay on SN12C renal, in the assay with HCC-2998 colon, with RPMI-8226 leukemia, in the assay on LOX IMVI melanoma and in the assay with UACC-257 melanoma was greater than 100 µM in each case. Besides, the TGI in the assay on HL-60(TB) leukemia and in the assay on COLO 205 colon was greater than 100 µM throughout.
For `Cc1cc(Cc2cc(C)c(NC(=O)C(=O)C3C(=O)NC(=S)NC3=O)c(C(C)C)c2)cc(C(C)C)c1NC(=O)C(=O)C1C(=O)NC(=S)NC1=O`, the TGI with SR leukemia, with SN12C renal, with HCC-2998 colon, with RPMI-8226 leukemia, in the assay with LOX IMVI melanoma and with UACC-257 melanoma was greater than 100 µM each time. The TGI in the assay on HL-60(TB) leukemia and in the assay on COLO 205 colon was greater than 100 µM each time.
Regarding `CC1CCCC(C(O)CC2CC(=O)N(c3ccccc3)C(=O)C2)C1=O` (stereo not drawn), the TGI with SR leukemia, in the assay on SN12C renal, in the assay with HCC-2998 colon, in the assay on RPMI-8226 leukemia, in the assay on LOX IMVI melanoma and in the assay on UACC-257 melanoma was greater than 100 µM each time. The TGI with HL-60(TB) leukemia and with COLO 205 colon was greater than 100 µM each time.
On to `Cc1ccc(-c2ccc(Nc3c4ccccc4nc4ccccc34)cc2)cn1`, for which the TGI with PC-3 prostate amounted to 28.8 µM; in the assay on SR leukemia, 6.56 µM; in the assay with SN12C renal, 15.3 µM; in the assay with HCC-2998 colon, 44.7 µM; with RPMI-8226 leukemia, 4.54 µM; in the assay with LOX IMVI melanoma, 6.54 µM. For the same molecule, the TGI with UACC-257 melanoma was 28.5 µM; with COLO 205 colon it was 12.2 µM.
In the case of `C=C(CN1CCN(c2cccc(C(F)(F)F)c2)CC1)c1ccc(C(=O)Nc2ccccc2N)cc1`, the GI50 in the assay with PC-3 prostate was 0.615 µM; in the assay with SR leukemia, 0.0568 µM; with SN12C renal, 2.19 µM; in the assay on DU-145 prostate it was 1.36 µM; in the assay on RPMI-8226 leukemia, 0.322 µM; in the assay on LOX IMVI melanoma, 0.56 µM. Further, the GI50 with UACC-257 melanoma was 0.762 µM; in the assay on HL-60(TB) leukemia it was 0.118 µM; in the assay with COLO 205 colon, 3.45 µM. Besides, the TGI in the assay on PC-3 prostate was greater than 50 µM; in the assay with SR leukemia it was greater than 50 µM; with SN12C renal, 14.5 µM; in the assay on DU-145 prostate, 7.23 µM; in the assay with RPMI-8226 leukemia it was 2.49 µM; in the assay with LOX IMVI melanoma, 6.25 µM. The results for the TGI with UACC-257 melanoma, in the assay on HL-60(TB) leukemia and in the assay with COLO 205 colon were 17.8 µM, 0.856 µM and greater than 23 µM, respectively.
On to `CCCCn1c2c(c3ccccc3c1=O)C(=O)c1ccccc1-2`, for which the TGI with PC-3 prostate, in the assay with SR leukemia, with SN12C renal, in the assay with DU-145 prostate, in the assay with RPMI-8226 leukemia and in the assay with LOX IMVI melanoma was greater than 100 µM in each case. The TGI with UACC-257 melanoma, with HL-60(TB) leukemia and in the assay with COLO 205 colon was greater than 100 µM in each case.
Consider `CCOc1ccccc1NC(=O)CCc1nnc2s/c(=C\CCc3ccccc3)c(=O)n12`, for which the TGI with SR leukemia, in the assay on SN12C renal, in the assay on HCC-2998 colon, in the assay on RPMI-8226 leukemia, with LOX IMVI melanoma and with UACC-257 melanoma was greater than 100 µM in each case. The TGI in the assay on HL-60(TB) leukemia and in the assay with COLO 205 colon was greater than 100 µM throughout.
As to `OCCSCCCSCCO`, the TGI in the assay with PC-3 prostate, in the assay with SR leukemia, with SN12C renal, in the assay on HCC-2998 colon, in the assay on DU-145 prostate and in the assay with LOX IMVI melanoma was greater than 100 µM each time. The TGI is greater than 100 µM in the assay on UACC-257 melanoma, 80.7 µM with HL-60(TB) leukemia and greater than 100 µM in the assay on COLO 205 colon.
